Values quoted from earlier work in paper PMC10967909, “Targeted Delivery of Abaloparatide to Spinal Fusion Site Accelerates Fusion Process in Rats” (Biomedicines, 2024).
Values belong to the molecule of their own block, whether it stands above or below them.

Legend:
[1] = molecular target: T1, PTH1R (UMR-106 cells) (Rattus norvegicus, UniProt P25961); details: UMR 106 cells treated with drug for 1 h; Figure 2A legend, adapted; ref Low et al., 2022 [20]; read-out: EC50 (cAMP Glo assay)
T1 construct: evaluated in UMR-106 cells (ATCC, Manassas, VA, USA) which express PTH1R; host or cells: UMR-106 cells
T1 sequence (P25961 27-591): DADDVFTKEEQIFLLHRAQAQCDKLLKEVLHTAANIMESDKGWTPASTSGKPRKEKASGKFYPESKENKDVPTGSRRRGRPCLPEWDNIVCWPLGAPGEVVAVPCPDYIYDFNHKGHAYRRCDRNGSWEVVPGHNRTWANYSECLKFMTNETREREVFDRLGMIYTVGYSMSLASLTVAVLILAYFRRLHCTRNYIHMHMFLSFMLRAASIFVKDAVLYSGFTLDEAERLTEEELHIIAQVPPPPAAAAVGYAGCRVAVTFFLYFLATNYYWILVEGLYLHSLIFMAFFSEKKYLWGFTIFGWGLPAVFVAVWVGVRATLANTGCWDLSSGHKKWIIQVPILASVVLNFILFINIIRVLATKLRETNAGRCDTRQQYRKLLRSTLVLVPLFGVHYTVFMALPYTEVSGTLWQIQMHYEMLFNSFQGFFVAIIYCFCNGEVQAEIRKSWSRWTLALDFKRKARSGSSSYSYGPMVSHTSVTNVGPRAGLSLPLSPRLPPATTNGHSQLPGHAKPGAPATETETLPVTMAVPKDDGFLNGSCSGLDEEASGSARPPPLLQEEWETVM

[2] = Text: A second question that logically arose is whether abaloparatide constituted the ideal payload for accelerating the fusion process. Although the PTH1R agonist, abaloparatide, has been well established as a bone anabolic agent, it is only clinically approved for treating osteoporosis. Most of abaloparatide’s applications have been limited to promoting systemic changes throughout the skeleton to reduce fracture risk.

EC50 [1]: 0.66 nM
Molecule: abaloparatide
trabecular bone growth, clinical ([2]; clinically): promote trabecular bone growth | fracture repair efficacy of nontargeted abaloparatide ([2]; past efforts, ref not given): unsuccessful due to the lack of efficacy at systemically tolerable doses | trabecular bone growth, preclinical ([2]; preclinically): promote trabecular bone growth

EC50 [1]: 0.48 nM
B1: Ab46-D-Glu20: variant of abaloparatide linked to a linear 20 mer of D-glutamic acid that naturally accumulates on exposed hydroxyapatite (protein)
chain: AVSEHQLLHDKGKSIQDLRRRELLEKLLAKLHTAEIRATSEVSPNSEEEEEEEEEEEEEEEEEEEE
modifications: The C-terminal 20 Glu are all D-residues (linear D-Glu20, described in the text as a 20 mer of D-glutamic acid); Ab46 is tak
